Here are results for 2 compounds from the NIST ThermoML archive (doi:10.1021/je400238j).

The conditions of the data set: Liquid, Ebulliometric method (Recirculating still).

Numbers after ± are expanded uncertainties.

Consider `CCO` [ethanol], for which the “vapor or sublimation pressure” value reads like this: (323.46 K) 30 ± 1.3 kPa; (338.72 K) 60 ± 1.5 kPa; (348.56 K) 90 ± 1.8 kPa; (351.51 K) 101.3 ± 2 kPa.

Take `CCCCCCCC` [octane]: the “vapor or sublimation pressure” value is, setting by setting: (359.76 K) 30 ± 1.3 kPa; (360.06 K) 30 ± 2.5 kPa; (380.43 K) 60 ± 1.5 kPa; (380.94 K) 60 ± 4.7 kPa; (394.09 K) 90 ± 1.9 kPa; (394.6 K) 90 ± 7 kPa. Besides, the “vapor or sublimation pressure” value was 101.3 ± 2 kPa (398.49 K) and 101.3 ± 7.9 kPa (398.74 K).

As a reminder, the vapor or sublimation pressure is the equilibrium pressure above the liquid or solid.
